Measured values as given in PubChem BioAssay (NCI).
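Compound exposure: 48 hours, 5 concentrations, 96-well plates. GI50 marks 50% less growth. Definition used: TGI = concentration required for complete inhibition of growth.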

What was measured:
Assay in all cases: DTP human tumour cell line panel, 48 h
786-0 renal = system: 786-0 renal
A498 renal = system: A498 renal
A549 NSCLC = system: A549 NSCLC
ACHN renal = system: ACHN renal
BT-549 breast = system: BT-549 breast
CAKI-1 renal = system: CAKI-1 renal
CCRF-CEM leukemia = system: CCRF-CEM leukemia
COLO 205 colon = system: COLO 205 colon
DU-145 prostate = system: DU-145 prostate
HCC-2998 colon = system: HCC-2998 colon
HCT-116 colon = system: HCT-116 colon
HCT-15 colon = system: HCT-15 colon
HL-60(TB) leukemia = system: HL-60(TB) leukemia
HOP-62 NSCLC = system: HOP-62 NSCLC
HOP-92 NSCLC = system: HOP-92 NSCLC
HS 578T breast = system: HS 578T breast
HT29 colon = system: HT29 colon
IGROV1 ovarian = system: IGROV1 ovarian
K-562 leukemia = system: K-562 leukemia
KM12 colon = system: KM12 colon
LOX IMVI melanoma = system: LOX IMVI melanoma
M14 melanoma = system: M14 melanoma
MALME-3M melanoma = system: MALME-3M melanoma
MCF7 breast = system: MCF7 breast
MDA-MB-231 breast = system: MDA-MB-231 breast
MDA-MB-435 = system: MDA-MB-435
MOLT-4 leukemia = system: MOLT-4 leukemia
NCI-H226 lung = system: NCI-H226 lung
NCI-H23 lung = system: NCI-H23 lung
NCI-H460 lung = system: NCI-H460 lung
NCI-H522 lung = system: NCI-H522 lung
NCI/ADR-RES ovarian = system: NCI/ADR-RES ovarian
OVCAR-3 ovarian = system: OVCAR-3 ovarian
OVCAR-4 ovarian = system: OVCAR-4 ovarian
OVCAR-5 ovarian = system: OVCAR-5 ovarian
OVCAR-8 ovarian = system: OVCAR-8 ovarian
PC-3 prostate = system: PC-3 prostate
RPMI-8226 leukemia = system: RPMI-8226 leukemia
RXF 393 renal = system: RXF 393 renal
SF-268 CNS = system: SF-268 CNS
SF-295 CNS = system: SF-295 CNS
SF-539 CNS = system: SF-539 CNS
SK-MEL-2 melanoma = system: SK-MEL-2 melanoma
SK-MEL-28 melanoma = system: SK-MEL-28 melanoma
SK-MEL-5 melanoma = system: SK-MEL-5 melanoma
SK-OV-3 ovarian = system: SK-OV-3 ovarian
SN12C renal = system: SN12C renal
SNB-19 CNS = system: SNB-19 CNS
SNB-75 CNS = system: SNB-75 CNS
SR leukemia = system: SR leukemia
SW-620 colon = system: SW-620 colon
T-47D breast = system: T-47D breast
TK-10 renal = system: TK-10 renal
U251 CNS = system: U251 CNS
UACC-257 melanoma = system: UACC-257 melanoma
UACC-62 melanoma = system: UACC-62 melanoma
UO-31 renal = system: UO-31 renal

CC(C)OP(=O)(OC(C)C)c1ncc(-c2ccc(C(F)(F)F)cc2)c(NC2CCCCCC2)n1
GI50 (786-0 renal): > 10 µM
TGI (786-0 renal): > 10 µM
GI50 (A498 renal): > 10 µM
TGI (A498 renal): > 10 µM
GI50 (A549 NSCLC): > 10 µM
TGI (A549 NSCLC): > 10 µM
GI50 (ACHN renal): > 10 µM
TGI (ACHN renal): > 10 µM
GI50 (BT-549 breast): > 10 µM
TGI (BT-549 breast): > 10 µM
GI50 (CAKI-1 renal): > 10 µM
TGI (CAKI-1 renal): > 10 µM
GI50 (CCRF-CEM leukemia): > 10 µM
TGI (CCRF-CEM leukemia): > 10 µM
GI50 (COLO 205 colon): > 10 µM
TGI (COLO 205 colon): > 10 µM
GI50 (DU-145 prostate): > 10 µM
TGI (DU-145 prostate): > 10 µM
GI50 (HCC-2998 colon): > 10 µM
TGI (HCC-2998 colon): > 10 µM
GI50 (HCT-116 colon): > 10 µM
TGI (HCT-116 colon): > 10 µM
GI50 (HCT-15 colon): > 10 µM
TGI (HCT-15 colon): > 10 µM
GI50 (HL-60(TB) leukemia): > 10 µM
TGI (HL-60(TB) leukemia): > 10 µM
GI50 (HOP-62 NSCLC): > 10 µM
TGI (HOP-62 NSCLC): > 10 µM
GI50 (HOP-92 NSCLC): > 10 µM
TGI (HOP-92 NSCLC): > 10 µM
GI50 (HS 578T breast): > 10 µM
TGI (HS 578T breast): > 10 µM
GI50 (HT29 colon): > 10 µM
TGI (HT29 colon): > 10 µM
GI50 (IGROV1 ovarian): > 10 µM
TGI (IGROV1 ovarian): > 10 µM
GI50 (K-562 leukemia): > 10 µM
TGI (K-562 leukemia): > 10 µM
GI50 (KM12 colon): > 10 µM
TGI (KM12 colon): > 10 µM
GI50 (LOX IMVI melanoma): > 10 µM
TGI (LOX IMVI melanoma): > 10 µM
GI50 (M14 melanoma): > 10 µM
TGI (M14 melanoma): > 10 µM
GI50 (MALME-3M melanoma): > 10 µM
TGI (MALME-3M melanoma): > 10 µM
GI50 (MCF7 breast): > 10 µM
TGI (MCF7 breast): > 10 µM
GI50 (MDA-MB-231 breast): > 10 µM
TGI (MDA-MB-231 breast): > 10 µM
GI50 (MDA-MB-435): > 10 µM
TGI (MDA-MB-435): > 10 µM
GI50 (MOLT-4 leukemia): > 10 µM
TGI (MOLT-4 leukemia): > 10 µM
GI50 (NCI-H226 lung): > 10 µM
TGI (NCI-H226 lung): > 10 µM
GI50 (NCI-H23 lung): > 10 µM
TGI (NCI-H23 lung): > 10 µM
GI50 (NCI-H460 lung): > 10 µM
TGI (NCI-H460 lung): > 10 µM
GI50 (NCI-H522 lung): > 10 µM
TGI (NCI-H522 lung): > 10 µM
GI50 (NCI/ADR-RES ovarian): > 10 µM
TGI (NCI/ADR-RES ovarian): > 10 µM
GI50 (OVCAR-3 ovarian): > 10 µM
TGI (OVCAR-3 ovarian): > 10 µM
GI50 (OVCAR-4 ovarian): > 10 µM
TGI (OVCAR-4 ovarian): > 10 µM
GI50 (OVCAR-5 ovarian): > 10 µM
TGI (OVCAR-5 ovarian): > 10 µM
GI50 (OVCAR-8 ovarian): > 10 µM
TGI (OVCAR-8 ovarian): > 10 µM
GI50 (PC-3 prostate): 9.51 µM
TGI (PC-3 prostate): > 10 µM
GI50 (RPMI-8226 leukemia): > 10 µM
TGI (RPMI-8226 leukemia): > 10 µM
GI50 (RXF 393 renal): > 10 µM
TGI (RXF 393 renal): > 10 µM
GI50 (SF-268 CNS): > 10 µM
TGI (SF-268 CNS): > 10 µM
GI50 (SF-295 CNS): > 10 µM
TGI (SF-295 CNS): > 10 µM
GI50 (SF-539 CNS): > 10 µM
TGI (SF-539 CNS): > 10 µM
GI50 (SK-MEL-2 melanoma): > 10 µM
TGI (SK-MEL-2 melanoma): > 10 µM
GI50 (SK-MEL-28 melanoma): > 10 µM
TGI (SK-MEL-28 melanoma): > 10 µM
GI50 (SK-MEL-5 melanoma): > 10 µM
TGI (SK-MEL-5 melanoma): > 10 µM
GI50 (SK-OV-3 ovarian): > 10 µM
TGI (SK-OV-3 ovarian): > 10 µM
GI50 (SN12C renal): > 10 µM
TGI (SN12C renal): > 10 µM
GI50 (SNB-19 CNS): > 10 µM
TGI (SNB-19 CNS): > 10 µM
GI50 (SNB-75 CNS): > 10 µM
TGI (SNB-75 CNS): > 10 µM
GI50 (SR leukemia): > 10 µM
TGI (SR leukemia): > 10 µM
GI50 (SW-620 colon): > 10 µM
TGI (SW-620 colon): > 10 µM
GI50 (T-47D breast): > 10 µM
TGI (T-47D breast): > 10 µM
GI50 (TK-10 renal): > 10 µM
TGI (TK-10 renal): > 10 µM
GI50 (U251 CNS): > 10 µM
TGI (U251 CNS): > 10 µM
GI50 (UACC-257 melanoma): > 10 µM
TGI (UACC-257 melanoma): > 10 µM
GI50 (UACC-62 melanoma): > 10 µM
TGI (UACC-62 melanoma): > 10 µM
GI50 (UO-31 renal): > 10 µM
TGI (UO-31 renal): > 10 µM
